Where a name gives a salt, the structure may show the parent alone.
Key:
[1] = tested on: ovariectomized (OVX) rats; test: Uterine wet weight in ovariectomized rat post-menopausal model, 4 days of dosing; type: in vivo, Sprague Dawley rats; conditions: oral, daily for 4 days
Procedure: In the examples illustrating the methods, a post-menopausal model was used in which effects of different treatments upon circulating lipids were determined.
(§1) Seventy-five day old female Sprague Dawley rats (weight range of 200 to 225 g) were obtained from Charles River Laboratories (Portage, Mich.). The animals were either bilaterally ovariectomized (OVX) or exposed to a Sham surgical procedure at Charles River Laboratories, and then shipped after one week. Upon arrival, they were housed in metal hanging cages in groups of 3 or 4 per cage and had ad libitum access to food (calcium content approximately 0.5%) and water for one week. Room temperature was maintained at 22.2°±1.7° C. with a minimum relative humidity of 40%. The photoperiod in the room was 12 hours light and 12 hours dark.
(§2) Dosing Regimen Tissue Collection. After a one week acclimation period (therefore, two weeks post-OVX) daily dosing with test compound was initiated. 17α-ethynyl estradiol or the test compound were given orally, unless otherwise stated, as a suspension in 1% carboxymethylcellulose or dissolved in 20% cyclodextrin. Animals were dosed daily for 4 days. Following the dosing regimen, animals were weighed and anesthetized with a ketamine: Xylazine (2:1, V:V) mixture and a blood sample was collected by cardiac puncture. The animals were then sacrificed by asphyxiation with CO2, the uterus was removed through a midline incision, and a wet uterine weight was determined.

[2] = tested on: Uterine Eosinophil Peroxidase (EPO); test: Uterine Eosinophil Peroxidase (EPO) Assay on uteri of dosed OVX rats; type: in vivo, Sprague Dawley rats; conditions: female, Sprague Dawley, rat, in vivo, po, 4 days
Source text: as §1, §2
Uterine Eosinophil Peroxidase (EPO) Assay. Uteri were kept at 4° C. until time of enzymatic analysis. The uteri were then homogenized in 50 volumes of 50 mM Tris buffer (pH−8.0) containing 0.005% Triton X-100. Upon addition of 0.01% hydrogen peroxide and 10 mM o-phenylenediamine (final concentrations) in Tris buffer, increase in absorbance was monitored for one minute at 450 nm. The presence of eosonophils in the uterus is an indication of estrogenic activity of a compound. The maximal velocity of a 15 second interval was determined over the initial, linear portion of the reaction curve.

[3] = tested on: ovariectomized (OVX) rats; test: Serum cholesterol analysis in ovariectomized rats, 4 days of dosing; type: in vivo, Sprague Dawley rats; conditions: oral, daily for 4 days
Source text: as §1, §2
Cholesterol Analysis. Blood samples were allowed to clot at room temperature for 2 hours, and serum was obtained following centrifugation for 10 minutes at 3000 rpm. Serum cholesterol was determined using a Boehringer Mannheim Diagnostics high performance cholesterol assay. Briefly the cholesterol was oxidized to cholest-4-en-3-one and hydrogen peroxide. The hydrogen peroxide was then reacted with phenol and 4-aminophenazone in the presence of peroxidase to produce a p-quinone imine dye, which was read spectrophotemetrically at 500 nm. Cholesterol concentration was then calculated against a standard curve. The entire assay was automated using a Biomek Automated Workstation.

[4] = tested on: ovariectomized (OVX) rats; test: Osteoporosis Test Procedure: femur bone density in OVX rats after 35 days of dosing; type: in vivo, Sprague Dawley rats; conditions: mean ± SEM
Source text: Seventy-five day old female Sprague Dawley rats (weight range of 200 to 225 g) were obtained from Charles River Laboratories (Portage, Mich.). The animals were either bilaterally ovariectomized (OVX) or exposed to a Sham surgical procedure at Charles River Laboratories, and then shipped after one week. Upon arrival, they were housed in metal hanging cages in groups of 3 or 4 per cage and had ad libitum access to food (calcium content approximately 0.5%) and water for one week. Room temperature was maintained at 22.2°±1.7° C. with a minimum relative humidity of 40%. The photoperiod in the room was 12 hours light and 12 hours dark. Following the General Preparation Procedure, infra, the rats were treated daily for 35 days (6 rats per treatment group) and sacrificed by decapitation on the 36th day. The 35 day time period was sufficient to allow maximal reduction in bone density, measured as described herein. At the time of sacrifice, the uteri were removed, dissected free of extraneous tissue, and the fluid contents were expelled before determination of wet weight in order to confirm estrogen deficiency associated with complete ovariectomy. […] The uteri were then placed in 10% neutral buffered formalin to allow for subsequent histological analysis. The right femurs were excised and scanned at the distal metaphysis 1 mm from the patellar groove with single photon absorptiometry. Results of the densitometer measurements represent a calculation of bone density as a function of the bone mineral content and bone width. In accordance with the above procedures, compounds of the present invention and ethynyl estradiol (EE2) in 20% hydroxypropyl β-cyclodextrin were orally administered to test animals. Data presented in Tables 5 and 6 below are the results of these treatments compared to intact and ovariectomized test animals. Results are reported as the mean±the standard error of the mean.

[5] = tested on: MCF-7 breast adenocarcinoma cells; test: MCF-7 Proliferation Assay (tritiated thymidine); type: cell-based; conditions: Homo sapiens, MCF7; MCF-7 cells, 48 hours with drug, tritiated thymidine pulse 4 hours
Procedure: MCF-7 breast adenocarcinoma cells (ATCC HTB 22) were maintained in MEM (minimal essential medium, phenol red-free, Sigma, St. Louis, Mo.) supplimented with 10% fetal bovine serum (FBS) (V/V), L-glutamine (2 mM), sodium pyruvate (1 mM), HEPES {(N-[2-hydroxyethyl]piperazine-N′-[2-ethanesulfonic acid]10 mM}, non-essential amino acids and bovine insulin (1 ug/mL) (maintenance medium). Ten days prior to assay, MCF-7 cells were switched to maintenance medium supplemented with 10% dextrancoated charcoal stripped fetal bovine serum (DCC-FBS) assay medium) in place of 10% FBS to deplete internal stores of steroids. MCF-7 cells were removed from maintenance flasks using cell dissociation medium (Ca++/Mg++ free HBSS (phenol red-free) supplemented with 10 mM HEPES and 2 mM EDTA). Cells were washed twice with assay medium and adjusted to 80,000 cells/mL. Approximately 100 μL (8,000 cells) were added to flat-bottom microculture wells (Costar 3596) and incubated at 37° C. in a 5% CO2 humidified incubator for 48 hours to allow for cell adherence and equilibration after transfer. Serial dilutions of drugs or DMSO as a diluent control were prepared in assay medium and 50 μL transferred to triplicate microcultures followed by 50 μL assay medium for a final volume of 200 μL. After an additional 48 hours at 37° C. in a 5% CO2 humidified incubator, microcultures were pulsed with tritiated thymidine (1 uCi/well) for 4 hours. Cultures were terminated by freezing at −70° C. for 24 hours followed by thawing and harvesting of microcultures using a Skatron Semiautomatic Cell Harvester. Samples were counted by liquid scintillation using a Wallac BetaPlace β counter. Results in Table 7 below show the IC50 for certain compounds of the present invention.

[6] = tested on: Uterine Eosinophil Peroxidase (EPO); test: Uterine Eosinophil Peroxidase (EPO) Assay on uteri of dosed OVX rats; type: in vivo, Sprague Dawley rats; conditions: ovariectomized rats
[7] = Table 5, oral, 0.01 mg/kg, OVX control 26.18, intact control 70.22, * P <= 0.05
[8] = Table 5, oral, 0.1 mg/kg, OVX control 26.18, intact control 70.22, * P <= 0.05

Uterine Weight (% increase vs. OVX) ([1]; dose 0.1 mg/kg) [%]	Uterine Weight (% increase vs. OVX) ([1]; dose 1.0 mg/kg) [%]	Uterine Weight (% increase vs. OVX) ([1]; dose 10.0 mg/kg) [%]	Uterine EPO (V. max) ([2]; 0.1 mg/kg)	Uterine EPO (V. max) ([2]; 1 mg/kg)	Uterine EPO (V. max) ([2]; 10 mg/kg)	IC50 [5] [nM]	SMILES	Serum Cholesterol (% decrease vs. OVX) ([3]; dose 0.1 mg/kg) [%]	Serum Cholesterol (% decrease vs. OVX) ([3]; dose 1.0 mg/kg) [%]	Serum Cholesterol (% decrease vs. OVX) ([3]; dose 10.0 mg/kg) [%]	Bone Density [4, 7] [mg/cm/cm]	Bone Density [4, 8] [mg/cm/cm]	Bone Density ([4]; Table 5, oral, 1.0 mg/kg, OVX control 26.18, intact control 70.22, * P <= 0.05) [mg/cm/cm]	Eosinophil infiltration into the uterus (number of eosinophils in the stromal layer, in words) [6]	Bone Density ([4]; Table 6, oral, 0.01 mg/kg, OVX control 32.46, intact control 81.27, * P <= 0.05) [mg/cm/cm]	Bone Density ([4]; Table 6, oral, 1.0 mg/kg, OVX control 32.46, intact control 81.27, * P <= 0.05) [mg/cm/cm]
−13.5	−13.7	−24.6	5.8	5.4	6.2	50	COc1ccc(-c2sc3cc(OC)ccc3c2Cc2ccc(OCCN3CCCCC3)cc2)cc1 [(p)-Ex16, [6-Methoxy-2-(4-Methoxyphenyl)Benzo[B]Thien-3-Yl][4-[2-(1-Piperidinyl)Ethoxy]Phenyl]Methane Hydrochloride]	26.8	59.4	72.3	26.78 ± 4.98	43.30 ± 7.86	33.62 ± 5.87			
							C[C@]12CC[C@@H]3c4ccc(O)cc4CC[C@H]3[C@@H]1CC[C@@H]2O [estradiol]							substantial, expected increase in eosinophil infiltration		
−22.7	−32.4	−25.2	3.1	3.0	2.8	0.01	CC(C)(C)C(=O)Oc1ccc(-c2sc3cc(OC(=O)C(C)(C)C)ccc3c2Cc2ccc(OCCN3CCCCC3)cc2)cc1 [(q)-Ex17, [6-{1,1,1-Trimethylacetyloxy}-2-(4-{1,1,1-Trimethylacetyloxy}Phenyl)Benzo[B]Thien-3-Yl][4-[2-(1-Piperidinyl)Ethoxy]Phenyl]Methane Hydrochloride]	55.8	56.8	58.8	17.63 ± 2.94	24.77 ± 4.65			36.44 ± 44	36.07 ± 4.20

Source: US6399634B1, “Benzothiophene compounds, compositions, and methods” (Eli Lilly and Company, priority 1994, dated 2002)
